{"source": "patent US7253193B2", "about": "“Cyanoguanidine prodrugs” (LEO Pharma A/S, priority 2002, dated 2007)", "origin": "cited, not measured here", "key": {"[1]": {"test_system": "human lung and breast cancer cell lines"}, "[2]": {"test_system": "human lung cancer tumour xenograft"}, "human tumour cells": {"test_system": "human tumour cells", "details": "also against tumour cells resistant to conventional anticancer drugs such as paclitaxel"}}, "data": [{"compound": "N#CNC(=Nc1ccncc1)NCCCCCCOc1ccc(Cl)cc1", "note": "[N-(6-(4-chlorophenoxy)hexyl)-N′-cyano-N″-(4-pyridyl)guanidine]", "values": [{"measurement": "antiproliferative activity in vitro", "setting": "[1]", "result": "high antiproliferative activity in vitro"}, {"measurement": "antitumour activity in the nude mouse model", "setting": "[2]", "result": "potent antitumour activity"}, {"measurement": "antitumour activity in vivo", "setting": "human tumour cells", "result": "substantial antitumour activity"}]}]}
